From patent US11458212B2, “Molecular imaging of cancer cells in vivo” (H. Lee Moffitt Cancer Center and Research Institute, Inc., priority 2011, dated 2022)
“Also recorded” adds a separate entry of the source.

Experiments:
TLR2 [1] = target: T1, TLR2 (Homo sapiens, UniProt O60603); experiment: In cyto europium TRF saturation binding assay; parameters: ATCC (SU.86.86 CRL-1837, Capan-I HTB-79); SU.86.86 and Capan-I express TLR2 endogenously
Description: TRF binding assays were performed as previously described (see Xu, L., et al. Mol Cancer Ther. 2009 8(8):2356-65).
Europium TRF binding assays were performed as previously described with slight modifications using 3 cell lines that express TLR2: HEK-293/hTLR2, SU.86.86, and Capan-I.[23a, 23d, 29] The Capan-I and SU.86.86 cells were plated in 96-well black plates with white opaque wells (PerkinElmer); while the HEK-293/hTLR2 cells were plated on 96-well poly-D-lysine coated plates (Sigma-Aldrich) to aid in the attachment of these cells to the plate. Cells were grown in the 96-well plates for 2 days reaching approximately 80% confluency. Both types of plates were evaluated for nonspecific binding and background signal.
For saturation binding, increased concentrations of the labeled ligand, compound 11 (Table 8), were used to determine total binding to TLR2. Non-specific binding was determined in the presence of 1 μM Pam2CSK4. On the day of the experiment the medium was aspirated. 50 μL of binding buffer was added to the total binding wells and 50 μL of Pam2CSK4 was added to the non-specific wells and then allowed to incubate for 30 m at 37° C. Next, 50 μL of the serial dilutions of […] were added and then allowed to incubate for 1 h at 37° C. Cells were washed three times to remove unbound ligand. Next, 100 μL of DELFIA Enhancement Solution (PerkinElmer) was added to each well. Cells were incubated for 30 min at 37° C. prior to reading. The plates were read on the VICTOR X4 Multilabel plate reader using the standard europium TRF protocol (340 nm excitation, […] and […] collection at 615 nm). To determine the mean Kd, statistical analysis was performed using GraphPad Prism software.
Target sequence in this assay (O60603 21-784): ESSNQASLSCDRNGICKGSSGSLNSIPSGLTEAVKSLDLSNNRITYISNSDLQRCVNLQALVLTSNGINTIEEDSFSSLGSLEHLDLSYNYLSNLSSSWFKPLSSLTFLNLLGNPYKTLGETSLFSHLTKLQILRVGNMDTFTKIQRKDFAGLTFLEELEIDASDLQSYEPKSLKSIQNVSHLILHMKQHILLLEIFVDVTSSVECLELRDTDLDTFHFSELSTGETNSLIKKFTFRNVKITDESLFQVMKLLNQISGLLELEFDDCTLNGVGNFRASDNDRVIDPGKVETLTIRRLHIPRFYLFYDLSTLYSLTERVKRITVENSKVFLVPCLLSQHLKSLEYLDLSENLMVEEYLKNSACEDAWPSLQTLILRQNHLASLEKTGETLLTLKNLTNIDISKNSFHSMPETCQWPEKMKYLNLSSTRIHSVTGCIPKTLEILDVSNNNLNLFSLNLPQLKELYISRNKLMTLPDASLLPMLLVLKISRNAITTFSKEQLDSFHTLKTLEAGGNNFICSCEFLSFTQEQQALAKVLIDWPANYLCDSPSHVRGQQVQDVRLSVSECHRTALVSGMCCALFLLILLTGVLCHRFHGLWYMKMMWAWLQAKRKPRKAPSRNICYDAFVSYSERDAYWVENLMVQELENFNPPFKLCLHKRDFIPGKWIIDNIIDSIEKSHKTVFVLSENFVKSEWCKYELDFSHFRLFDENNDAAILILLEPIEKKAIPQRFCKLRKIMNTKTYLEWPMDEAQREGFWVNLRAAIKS
Target sequence in this assay (Q9Y2C9 32-796 partner): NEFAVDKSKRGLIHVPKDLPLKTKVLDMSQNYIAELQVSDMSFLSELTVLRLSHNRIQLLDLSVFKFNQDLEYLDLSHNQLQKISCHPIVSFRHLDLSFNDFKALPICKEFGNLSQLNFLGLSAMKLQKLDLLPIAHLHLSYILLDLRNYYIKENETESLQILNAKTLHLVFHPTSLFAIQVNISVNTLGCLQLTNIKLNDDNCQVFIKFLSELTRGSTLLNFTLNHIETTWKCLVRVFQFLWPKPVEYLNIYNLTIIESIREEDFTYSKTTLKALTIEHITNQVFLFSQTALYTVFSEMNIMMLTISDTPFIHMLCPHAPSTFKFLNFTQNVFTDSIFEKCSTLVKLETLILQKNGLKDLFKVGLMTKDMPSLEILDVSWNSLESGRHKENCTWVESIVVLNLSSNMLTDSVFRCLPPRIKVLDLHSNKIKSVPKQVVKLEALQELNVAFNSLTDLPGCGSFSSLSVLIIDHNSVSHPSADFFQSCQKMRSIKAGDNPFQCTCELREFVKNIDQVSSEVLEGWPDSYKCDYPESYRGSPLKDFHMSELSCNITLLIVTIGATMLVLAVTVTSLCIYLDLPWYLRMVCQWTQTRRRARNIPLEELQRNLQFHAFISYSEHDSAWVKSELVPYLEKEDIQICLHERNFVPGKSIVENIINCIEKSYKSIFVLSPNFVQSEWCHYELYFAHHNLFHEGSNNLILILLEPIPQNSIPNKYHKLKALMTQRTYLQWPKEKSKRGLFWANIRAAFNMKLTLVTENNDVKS

TLR2 [2] = target: T1, TLR2; experiment: In vitro TLR2 functional bioassay (NF-κB luciferase, HEK293/hTLR2 cells); assay type: cell-based; parameters: host or cells: HEK293 stably transfected with pUNO-hTLR2, transiently transfected with the pNifty-Luc reporter
Source text: In Vitro TLR2 Functional Bioassay The in vitro TLR2 functional bioassay was developed and optimized for use in screening soluble compound libraries to identify both TLR2 agonists and antagonists. In this study, the TLR2 functional bioassay was used as a fast high throughput screening to identify TLR2 agonist ligands by measuring the inducing activity of NF-κB. HEK293/hTLR2 cells, highly overexpressing human TLR2, were used along with the parental HEK293, cells as a negative control. Cells were seeded at a density of 40,000 per well using a WellMate® Microplate dispenser (Thermo Fischer Scientific/Matrix) in black 96-well plates with opaque white wells (Perkin Elmer Wallac, Waltham, Mass.) and then incubated at 37° C. On day 2, the cells were transiently transfected with pNifty-Luc (InvivoGen), an NF-κB inducible reporter plasmid expressing the luciferase reporter gene (Zuany-Amorim, C., J., et al. Nat Rev Drug Discov, 2002. 1(10):797-807), using an optimized 4:1 ratio by volume of Fugene® HD Transfection Reagent (Roche Applied Science, Indianapolis, Ind.) to pNifty-Luc plasmid DNA (1 μg/mL). […] On day 4 after 24 hrs of peptide stimulation, luciferase induced activity by the induction of NF-κB was measured. Media was aspirated from the wells using an ELx405 Select plate washer (BioTek, Winooski, Vt.), 150 μg/mL D-luciferin (Gold Biotechnology, St. Louis, Mo.) was dispensed using the microplate dispensor; the plates were incubated at 37° C. for 5 min. The luminescence intensity was measured using the standard luminescence protocol on a Victor™ X4 plate-reader equipped with a plate stacker for readout of multiple plates at a time (PerkinElmer, Waltham, Mass.). For each in vitro TLR2 bioassay, at least three different experiments were performed in triplicate (n=3+). Data were analyzed with GraphPad Prism software and curves were generated with the appropriate nonlinear fit regression analysis.
The in vitro TLR2 functional bioassay was developed and optimized for use in high-throughput screening of soluble compound libraries to identify both TLR2 agonists and antagonists. The bioassay measures the induction of NF-κB signaling via TLR2 in HEK-293/hTLR2 cells and parental HEK-293 cells as a negative control. Cells were seeded at a density of 40,000 per well using a WellMate Microplate dispenser (Thermo Fisher Scientific/Matrix) in black 96-well plates with opaque white wells (PerkinElmer, Waltham, Mass.) and then incubated at 37° C. On day 2, the cells were transiently transfected with pNifty-Luc (InvivoGen, San Diego, Calif.), an NF-κB inducible reporter plasmid expressing the luciferase reporter gene[28] using an optimized 4:1 ratio by volume of FugeneHD Transfection Reagent (Promega, Madison, Wis.) to pNifty-Luc plasmid DNA (1 μg/mL). […] […] On day 4 after 24 h of peptide stimulation, luciferase induced activity by the induction of NF-κB was measured. Media was aspirated from the wells using an ELx405 Select CW plate washer (BioTek, Winooski, Vt.), 150 μg/mL D-luciferin (Gold Biotechnology, St. Louis, Mo.) was dispensed using the microplate dispensor; the plates were incubated at 37° C. for 5 min. The luminescence intensity was measured using the standard luminescence protocol on a Victor X4 Multilabel plate reader equipped with a plate stacker for readout of multiple plates at a time (PerkinElmer, Waltham, Mass.). […] Data were analyzed with GraphPad Prism software and curves were generated with the appropriate nonlinear fit regression analysis.
Target sequence in this assay (O60603 21-784): as the sequence (O60603 21-784) above
Target sequence in this assay (Q9Y2C9 32-796 partner): as the sequence (Q9Y2C9 32-796 partner) above

TLR2 [3] = target: T1, TLR2; experiment: In cyto europium TRF competition binding assay; parameters: ATCC (SU.86.86 CRL-1837, Capan-I HTB-79); SU.86.86 and Capan-I express TLR2 endogenously
Target sequence in this assay (O60603 21-784): as the sequence (O60603 21-784) above
Target sequence in this assay (Q9Y2C9 32-796 partner): as the sequence (Q9Y2C9 32-796 partner) above
Description: Competition binding assays were performed to test the TLR2 binding specificity of the test ligands using 2 cell lines: HEK-293/hTLR2 and SU.86.86. Cells were grown in 96-well plates for 2 days reaching approximately 80% confluency. On the day of the experiment, the cell culture media was aspirated and 50 μL of non-labeled test ligand was added in a series of decreasing concentrations (1 μM to 0.01 nM) followed by 50 μL of the competing Eu-labeled ligand 10 at a fixed concentration of 90 nM. Cells were incubated with labeled and unlabeled ligands for 1 h at 37° C. […] Cells were incubated for 30 min at 37° C. prior to reading. The plates were read on PerkinElmer VICTOR X4 Multilabel reader using the standard europium TRF protocol. […]

[4] = system: TLR2 expressing tumor xenografts (SU.86.86 cells); experiment: In vivo TLR2 selectivity / tumor retention fluorescence imaging; parameters: species or system nude mice
[5] = system: orthotopic pancreatic tumors; experiment: FL guided intraoperative surgical removal of orthotopic pancreatic tumors; assay type: in vivo, mice; details: 24 h post-injection, data not shown
Source text: Improved survival rates for pancreatic cancer are associated with the complete surgical resection of tumor resulting in a tumor-free margin (R0). New methods employing intraoperative fluorescence (FL) guided tumor detection could lead to increased R0 margins and improved survival. We have reported Toll-like receptor 2 (TLR2) as a bona fide cell-surface marker for pancreatic adenocarcinoma. We then developed a high-affinity TLR2 binding ligand conjugated to a near-infrared (NIR) fluorescent dye, IR800CW, as a targeted molecular imaging probe for the intraoperative detection of surgical margins. To evaluate the in vivo pharmacokinetics and biodistribution of compound 13, FL imaging was performed on multiple optical imaging systems (PerkinElmer IVIS 200 and FMT2500XL, and ART Optix MX3) using TLR2 expressing pancreatic tumor xenograft mouse models (subcutaneous and orthotopic). […] Prior to surgery, the orthotopic pancreatic tumor volumes were monitored weekly and measured in vivo by 3D ultrasound imaging. […]

[6] = system: TLR2 expressing tumor xenografts (SU.86.86 cells); experiment: In vivo TLR2 selectivity / tumor retention fluorescence imaging; parameters: species or system nude mice; details: for retention of fluorescence signal in tumor: 24 h post injection
Description: Female athymic nude mice 6-8 weeks old (Harlan) bearing human pancreatic tumor xenografts consisting of SU.86.86 cells on the right flank were used for this study. Mouse weights and tumor volumes were determined using caliper measurements and the formula: volume (mm3)=(length×width^2)/2. Images were acquired when the tumors reached an average size of 500 mm^3. For the blocked group, a co-injection of 100 nmol/kg of the fluorescently labeled compound 13 plus 2 μmol/kg Pam2CSK4 (a 20-fold excess) was administered via tail vein injection; for the unblocked group, 100 nmol/kg 13 was administered. Fluorescence images were acquired at time 0 and 24 h using the Caliper Xenogen IVIS200 system (PerkinElmer) with the 710-760 nm excitation and 810-875 nm emission filter set. The fluorescence was quantified using Living Image software, in which the quantified signals were corrected for both instrument and mouse background subtractions. The quantified fluorescence was then plotted using GraphPad Prism software and underwent statistical analysis using Student's t-test.
For further confirmation of ligand 13 specificity for TLR2, ex vivo fluorescence imaging and histological analyses were performed on the tumors. For histological analyses the samples were fixed in 10% formalin solution, processed, embedded, sectioned and either H&E stained for the presence of tumor or underwent IHC staining using TLR2 antibody (Abcam #ab24192).

TLR2 [7] = target: T1, TLR2; details: 95° C. for 30 min; cited from earlier work
Target sequence in this assay (O60603 21-784, species assumed): as the sequence (O60603 21-784) above

## CCCCCCCCCCCCCCCC(=O)OC[C@H](CSC[C@H](NC(=O)COCC(=O)NCCCOCCOCCOCCCNC(=O)CN(CCN(CCN(CC(=O)O)CC(=O)O)CC(=O)O)CC(=O)O)C(=O)NCC(=O)N[C@H](CO)C(=O)NCCCOCCOCCOCCCNC(=O)COCC(N)=O)OC(=O)CCCCCCCCCCCCCCC [Compound 11]
TLR2 [1]; Capan-I cells
  Bmax: 951,170 AFU
TLR2 [1]; HEK-293/hTLR2 cells
  Bmax: 114,271 AFU
TLR2 [1]; SU.86.86 cells
  Bmax: 269,878 AFU
TLR2 [1]; cell line not stated
  Kd: 30 nM
TLR2 [2]
  decrease in potency compared to 10: 10 fold

## CCCCCCCCCCCCCCCC(=O)OC[C@H](CSC[C@H](NC(=O)COCC(=O)NCCCOCCOCCOCCCNC(=O)CCSC1CC(=O)N(CCNC(=O)CCCCC[N+]2=C(/C=C/C3=C(Oc4ccc(S(=O)(=O)[O-])cc4)C(=C/C=C4/N(CCCCS(=O)(=O)O)c5ccc(S(=O)(=O)O)cc5C4(C)C)/CCC3)C(C)(C)c3cc(S(=O)(=O)O)ccc32)C1=O)C(=O)NCC(=O)N[C@H](CO)C(=O)NCCCOCCOCCOCCCNC(=O)COCC(N)=O)OC(=O)CCCCCCCCCCCCCCC (stereo partly drawn) [Compound 13, IRDye800CW-Mpr-PEGO-Cys(S-[2,3-bis(palmitoyl)oxy-(R)-propyl])-Gly-DSer-PEGO-NH2]
TLR2 [3]; SU.86.86 cells, 90 nM compound 11
  Ki: 67 nM
TLR2 [3]; competitive binding assay, cell line not stated
  Ki: 11 nM
[4]; 10 nmol/Kg dosage
  duration of retention in the SU.86.86 tumor: over 96 h
[4]; mouse, in vivo
  clearance from the kidney: cleared from the kidney within days of the injection but was retained longer in the tumor
[4]; orthotopic
  uptake in orthotopic pancreatic tumor xenografts: taken into and retained in orthotopic pancreatic tumor xenografts
[4]; post-injection, dose not stated
  duration of FL signal retention in TLR2 expressing tumor xenografts: up to 96 h
[5]
  intraoperative fluorescence detection of tumor: intraoperative detection of pancreatic cancer were demonstrated
[6]; 24 h, 100 nmol/kg 13 ± 2 μmol/kg Pam2CSK4 (20-fold excess), n=8
  mean tumor fluorescence unblocked / blocked: 1.94 fold
[6]; 24 h, p<0.001
  effect of blocking with excess unlabeled ligand on tumor signal: significantly decreased FL signal in the tumor; also recorded: significant reduction in the tumor fluorescence
[6]
  retention of fluorescence signal in tumor: Fluorescence signal was present in TLR2 expressing pancreatic tumor xenografts; also recorded: retention of fluorescence signal in the tumor
[6]; listed as LiCor IRDye800CW/T-02 conjugate
  retention of fluorescence signal in tumor: retained in the tumor at 24 h post injection while the agent had cleared from the animal except for the kidneys
TLR2 [2]; dose-response 0.001 ng/mL to 10 μg/mL, read-out: TLR2 Agonist Activity EC50
  EC50: 34 nM

B1: SAA: recombinant human Apo-SAA1 (Peprotech) derived from E. coli; serum amyloid A, acute-phase protein, TLR2 agonist (protein)
chain: MRSFFSFLGEAFDGARDMWRAYSDMREANYIGSDKYFHARGNYDAAKRGPGGVWAAEAISDRENIQRFFGHGAEDSLADQAANEWGRSGKDPNHFRPAGLPEKY
TLR2 [7]
  loss of activity of heat-treated SAA: 95%
TLR2 [2]; 1 μg/mL, SAA at 1 and 10 μg/mL
  NF-κB induced luciferase activity (luminescence) in screening: low potency
